Assay results from patent publication EP0328090A2 (priority 1988, dated 1989).
Starred links: 1 amine or outer side, 2 acyl side, 3 side chain; linkers in the order of their positions; H or OH if unused. Non-standard residues stand in square brackets, D forms with d. Residues, ends and D or L forms follow the SMILES beside them. X1 = CCNC[C@@H](C(=O)[*:2])N(C)[*:1]; Sar = CNCC(=O)O

Key:
LHRH receptors = target: T1, LHRH receptors (Rattus norvegicus, UniProt P30969); experiment: Radioligand receptor binding assay; details: rat pituitary membranes; radioiodinated [D-Leu⁶-des Gly¹⁰]-LHRH ethyl amide 50pM; 2 hours at 4°C; read-out: Receptor Binding pkI (converted)
T1 sequence (P30969 1-327): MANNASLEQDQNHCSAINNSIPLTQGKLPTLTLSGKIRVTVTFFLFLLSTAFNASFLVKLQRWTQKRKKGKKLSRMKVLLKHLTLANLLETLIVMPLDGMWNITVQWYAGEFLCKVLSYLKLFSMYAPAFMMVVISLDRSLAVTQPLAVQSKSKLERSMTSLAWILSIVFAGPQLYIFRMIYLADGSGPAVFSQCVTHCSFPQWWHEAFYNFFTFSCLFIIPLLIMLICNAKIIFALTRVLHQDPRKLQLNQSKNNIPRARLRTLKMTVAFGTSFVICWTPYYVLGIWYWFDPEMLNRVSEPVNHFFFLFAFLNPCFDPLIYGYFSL
Procedure: (§1) The biological activities of the compounds of the invention are determined by the following assays: • (a) Receptor Binding. A radioligand receptor binding assay is performed in a similar way to that described in the literature (J. Marion et al., Mol. Pharmacol. 19 399 (1981)). […] The radioligand (50pM), receptors, and compounds to be tested are coincubated for 2 hours at 4°C. Bound ligand is separated from free ligand via centrifugation and aspiration. […] This assay has been adopted from the literature (H.A. Jinnah and P.M. Conn, Endrocrinology 118 2599 (1986)). Rat pituitaries are removed from immature female rats, minced, and dissociated with collagenase/hyaluronidase. They are allowed to attach to 48-well microtiter plates for 48-72 hours, then are exposed to test compounds for 3 hours at 37°C. The medium is assayed for released LH by RIA (radioimmunoassay). […] The compound to be tested is administered to castrated rats intraveneously and the serum LH concentration at various time points is measured by RIA. The time inteorated LH response is calculated and the dose producing half-maximal LH release (ED₅₀) is reported. • (d) Stability against enzymatic degradation. The intestinal stability of the compounds of the invention was determined using in vitro rat jejunum in a reperfusion system. The fractional mucosal loss was an indicator of the relative rate if degradation of the compounds thirty minutes after introduction of the luminal bath.

serum LH concentration = experiment: In vivo LH release in castrated rats (serum LH by RIA); details: i.v., dose producing half-maximal time integrated LH release
Procedure: as §1

Row | SMILES | Ki (LHRH receptors) [nM] | ED₅₀ (serum LH concentration) [µg/kg]
1 | CC(C)C[C@H](NC(=O)[C@@H](Cc1ccc2ccccc2c1)NC(=O)[C@H](Cc1ccc(O)cc1)NC(=O)[C@H](CO)N(C)C(=O)[C@H](Cc1c[nH]c2ccccc12)NC(=O)[C@H](Cc1c[nH]cn1)NC(=O)[C@@H]1CCC(=O)N1)C(=O)N[C@@H](CCCN=C(N)N)C(=O)N1CCC[C@H]1C(=O)NCC(N)=O [Ex. 3, (pyro)Glu-His-Trp-N-Me-Ser-Tyr-D-(2)-Nal-Leu-Arg-Pro-Gly-NH₂] | 0.0398 | 
2 | CCNC[C@@H](C(=O)N[C@@H](Cc1ccc(O)cc1)C(=O)N[C@H](Cc1c[nH]c2ccccc12)C(=O)N[C@@H](CC(C)C)C(=O)N[C@@H](CCCNC(=N)N)C(=O)N1CCC[C@H]1C(=O)NCC)N(C)C(=O)[C@H](Cc1c[nH]c2ccccc12)NC(=O)[C@H](Cc1c[nH]cn1)NC(=O)CN(C)C(C)=O [Ex. 7, N-Ac-Sar-His-Trp-(3)-N-Et-(2)-N-Me-Dap-Tyr-D-Trp-Leu-Arg-Pro-NHEt] (Ac-[Sar]HW[X1]Y[dW]LRP-NHEt) |  | 9.64
3 | CCNC(=O)CC[C@H](NC(=O)NCC)C(=O)N[C@@H](Cc1c[nH]cn1)C(=O)N[C@@H](Cc1c[nH]c2ccccc12)C(=O)N(C)[C@@H](CO)C(=O)N[C@@H](Cc1ccc(O)cc1)C(=O)N[C@H](Cc1c[nH]c2ccccc12)C(=O)N[C@@H](CC(C)C)C(=O)N[C@@H](CCCNC(=N)N)C(=O)N1CCC[C@H]1C(=O)NCC [Ex. 12, (2)-N-(Ethylaminocarbonyl)-(5)-N-ethylamido-Glu-His-Trp-N-Me-Ser-Tyr-D-Trp-Leu-Arg-Pro-NHEt] |  | 9.90
4 | CCNC(=O)[C@@H]1CCCN1C(=O)[C@H](CCCNC(=N)N)NC(=O)[C@H](CC(C)C)N1CC[C@H](NC(=O)[C@H](Cc2ccc(O)cc2)NC(=O)[C@H](CO)N(C)C(=O)[C@H](Cc2c[nH]c3ccccc23)NC(=O)[C@H](Cc2c[nH]cn2)NC(=O)[C@@H]2CCC(=O)N2)C1=O [Ex. 13, (pyro)-Glu-His-Trp-N-Me-Ser-Tyr-6,7-[2-(S-3-amino-2-oxo-pyrrolidin-1-yl)-S-2-Isopropylmethylacetyl]-Arg-Pro-NHEt] | 0.038 | 
5 | CCNC(=O)[C@@H]1CCCN1C(=O)[C@H](CCCN=C(N)N)NC(=O)[C@H](CC(C)C)NC(=O)[C@@H](Cc1c[nH]c2ccccc12)NC(=O)[C@H](Cc1ccc(O)cc1)N(C)C(=O)[C@H](CO)NC(=O)[C@H](Cc1c[nH]c2ccccc12)NC(=O)[C@H](Cc1c[nH]cn1)NC(=O)[C@@H]1CCC(=O)N1 [Ex. 20, (pyro)Glu-His-Trp-Ser-N-Me-Tyr-D-Trp-Leu-Arg-ProNHEt] | 0.0158 | 
6 | CCNC(=O)[C@@H]1CCCN1C(=O)[C@H](CCCN=C(N)N)NC(=O)[C@H](CC(C)C)NC(=O)[C@@H](CC(C)C)N(C)C(=O)[C@H](Cc1ccc(O)cc1)NC(=O)[C@H](CO)NC(=O)[C@H](Cc1c[nH]c2ccccc12)NC(=O)[C@H](Cc1cnc[nH]1)NC(=O)[C@@H]1CCC(=O)N1 [Ex. 22, (pyro)Glu-His-Trp-Ser-Tyr-N-Me-D-Leu-Leu-Arg-ProNHEt] | 0.692 | 
7 | CC(C)C[C@H](NC(=O)CNC(=O)[C@H](Cc1ccc(O)cc1)NC(=O)[C@H](CO)NC(=O)[C@H](Cc1c[nH]c2ccccc12)NC(=O)[C@H](Cc1c[nH]cn1)NC(=O)[C@@H]1CCC(=O)N1)C(=O)N[C@@H](CCCNC(=N)N)C(=O)N1CCC[C@H]1C(=O)NCC(N)=O [LHRH, reference compound] |  | 100
